In US11931424B2, “Combination MCL-1 inhibitors with anti-body drug conjugates” (Gilead Sciences, Inc., priority 2021, dated 2024):

System: panel of breast cancer cell lines
Assay: Compound A with targeted agents and chemotherapies, 72-hour in vitro proliferation assays
Assay type: cell-based
Details: compound A × partner, 72-hour proliferation

Compound: N.N.O=C([O-])C1(C(=O)[O-])CCC1.[Pt+2] [Carboplatin]
- Best CI (AU565 cell line): 1.10
- Bliss Volume (AU565 cell line): 6.93
- HSA volume (AU565 cell line): −0.68
- Loewe Volume (AU565 cell line): −0.04
- Synergy Score (AU565 cell line): 3.68
- Best CI (BT-20 cell line): 0.66
- Bliss Volume (BT-20 cell line): 7.81
- HSA volume (BT-20 cell line): 1.55
- Loewe Volume (BT-20 cell line): −0.31
- Synergy Score (BT-20 cell line): 5.46
- Best CI (BT-474 cell line): 1.30
- Bliss Volume (BT-474 cell line): −3.87
- HSA volume (BT-474 cell line): −5.02
- Loewe Volume (BT-474 cell line): −4.61
- Synergy Score (BT-474 cell line): 2.18
- Best CI (BT-549 cell line): 1.30
- Bliss Volume (BT-549 cell line): 6.55
- HSA volume (BT-549 cell line): 4.24
- Loewe Volume (BT-549 cell line): 4.88
- Synergy Score (BT-549 cell line): 5.26
- Best CI (CAL-51 cell line): 0.89
- Bliss Volume (CAL-51 cell line): 2.81
- HSA volume (CAL-51 cell line): 2.17
- Loewe Volume (CAL-51 cell line): 2.97
- Synergy Score (CAL-51 cell line): 5.53
- Best CI (CAL-85-1 cell line): 1.11
- Bliss Volume (CAL-85-1 cell line): 4.84
- HSA volume (CAL-85-1 cell line): 3.68
- Loewe Volume (CAL-85-1 cell line): 3.42
- Synergy Score (CAL-85-1 cell line): 4.18
- Best CI (CAL-120 cell line): 0.58
- Bliss Volume (CAL-120 cell line): −0.19
- HSA volume (CAL-120 cell line): −1.52
- Loewe Volume (CAL-120 cell line): −0.25
- Synergy Score (CAL-120 cell line): 0.49
- Best CI (CAL-148 cell line): 0.27
- Bliss Volume (CAL-148 cell line): 11.40
- HSA volume (CAL-148 cell line): 12.06
- Loewe Volume (CAL-148 cell line): 11.89
- Synergy Score (CAL-148 cell line): 24.09
- Best CI (CAMA-1 cell line): 0.46
- Bliss Volume (CAMA-1 cell line): 9.50
- HSA volume (CAMA-1 cell line): 6.02
- Loewe Volume (CAMA-1 cell line): 6.21
- Synergy Score (CAMA-1 cell line): 12.48
- Best CI (DU-4475 cell line): 0.76
- Bliss Volume (DU-4475 cell line): 10.04
- HSA volume (DU-4475 cell line): 7.26
- Loewe Volume (DU-4475 cell line): 6.59
- Synergy Score (DU-4475 cell line): 8.88
- Best CI (EVSA-T cell line): 0.84
- Bliss Volume (EVSA-T cell line): 9.55
- HSA volume (EVSA-T cell line): −0.13
- Loewe Volume (EVSA-T cell line): −0.33
- Synergy Score (EVSA-T cell line): 4.72
- Best CI (HCC38): 0.63
- Best CI Level (HCC38): 130
- Bliss Volume (HCC38): 5.43
- HSA volume (HCC38): 5.68
- Loewe Volume (HCC38): 3.81
- Synergy Score (HCC38): 9.07
- Best CI (HCC70): 0.31
- Best CI Level (HCC70): 60
- Bliss Volume (HCC70): 12.67
- HSA volume (HCC70): 3.84
- Loewe Volume (HCC70): 3.02
- Synergy Score (HCC70): 7.72
- Best CI (HCC1143 cell line): 0.82
- Bliss Volume (HCC1143 cell line): −4.47
- HSA volume (HCC1143 cell line): −2.24
- Loewe Volume (HCC1143 cell line): −2.60
- Synergy Score (HCC1143 cell line): 3.59
- Best CI (HCC1569): 0.43
- Best CI Level (HCC1569): 30
- Bliss Volume (HCC1569): 4.84
- HSA volume (HCC1569): 2.05
- Loewe Volume (HCC1569): 2.91
- Synergy Score (HCC1569): 2.85
- Best CI (HCC1806): 0.33
- Best CI Level (HCC1806): 80
- Bliss Volume (HCC1806): 11.43
- HSA volume (HCC1806): 4.44
- Loewe Volume (HCC1806): 9.76
- Synergy Score (HCC1806): 9.06
- Best CI (HCC1937): 0.44
- Best CI Level (HCC1937): 25
- Bliss Volume (HCC1937): 5.97
- HSA volume (HCC1937): 3.52
- Loewe Volume (HCC1937): 4.56
- Synergy Score (HCC1937): 4.59
- Best CI (HCC1954): 1.07
- Best CI Level (HCC1954): 125
- Bliss Volume (HCC1954): 2.26
- HSA volume (HCC1954): 2.07
- Loewe Volume (HCC1954): 0.71
- Synergy Score (HCC1954): 5.12
- Best CI (HCC2218): 0.70
- Best CI Level (HCC2218): 45
- Bliss Volume (HCC2218): 2.59
